From US20250186433A1, “ACSS2 INHIBITORS AND METHODS OF USE THEREOF” (EpiVario, Inc., priority 2017, published 2025)
Entries after “also recorded” stand apart in the source; their conditions may differ.

Legend:
ACSS2 [1] = target: T1, ACSS2 (Homo sapiens, UniProt Q9NR19); assay: cell-based
Method: Testing the inhibitory effect of compounds on the cellular activity of ACSS2 was done by tracing the incorporation of ^13C from ^13C-acetate into fatty-acids in MDA-MB-468 cells under hypoxic conditions of 1% O2. The assay was done for 5 hours in DMEM with 5.5 mM glucose, 1 mM sodium Pyruvate, 0.65 mM Glutamine, 3.5 ug/ml Biotin, 1% dialyzed serum, 0.5 mM 13 C-acetate and with different concentrations of the inhibitors. At the end of the incubation, the cells were washed with cold PBS, harvested into glass tubes and undergo saponification. The level of ^13C incorporation into Palmitate was done by LC-MS analysis and the level of inhibition was calculated with PRISM software.

[2] = Pharmacokinetic profile in mice (oral and iv); type: in vivo; conditions: mouse, plasma
AACS = target: T2, AACS (Homo sapiens, UniProt Q86V21); assay: Acyl-CoA synthetases selectivity panel: AACS; type: biochemical; conditions: human recombinant protein, substrate acetoacetyl, AMP readout by HPLC; read-out: HPLC based activity assays IC50 (UM) AACS
T2 construct: purchased Cusabio, China
T2 sequence (Q86V21 1-672): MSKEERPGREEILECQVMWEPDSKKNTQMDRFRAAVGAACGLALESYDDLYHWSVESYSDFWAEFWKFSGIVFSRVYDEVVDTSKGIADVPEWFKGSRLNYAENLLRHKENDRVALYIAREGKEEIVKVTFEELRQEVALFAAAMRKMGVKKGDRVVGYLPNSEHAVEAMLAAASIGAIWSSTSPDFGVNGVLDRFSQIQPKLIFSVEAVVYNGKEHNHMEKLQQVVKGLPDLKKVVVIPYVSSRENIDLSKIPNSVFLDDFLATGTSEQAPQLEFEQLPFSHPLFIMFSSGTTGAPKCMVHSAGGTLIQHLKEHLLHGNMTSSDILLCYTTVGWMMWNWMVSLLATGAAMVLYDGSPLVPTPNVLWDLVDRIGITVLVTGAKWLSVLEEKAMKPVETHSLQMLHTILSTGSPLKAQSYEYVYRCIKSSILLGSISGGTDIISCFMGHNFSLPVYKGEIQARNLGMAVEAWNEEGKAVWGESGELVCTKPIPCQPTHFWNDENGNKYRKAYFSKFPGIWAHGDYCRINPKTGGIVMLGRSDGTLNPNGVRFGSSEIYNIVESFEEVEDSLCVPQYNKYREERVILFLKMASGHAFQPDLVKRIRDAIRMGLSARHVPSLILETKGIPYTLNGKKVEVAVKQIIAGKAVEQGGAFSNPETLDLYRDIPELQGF
From the text: (§1) The biochemical assays for testing the selectivity of the compounds according to this invention, were done using human recombinant proteins (Cusabio, China). The readout of the assays was AMP levels, the […] of the reactions, by HPLC method. The acyl substrates (Sigma-Aldrich) of the assays were as followed: ACSS1/ACSS2—Acetate, AACS-Acetoacetyl, ACSF2—Octanoate and ACSL5—Palmitate. The protein in this panel include ACSS1, the closest homolog of ACSS2, in addition to representative short/medium/long chain acyl-CoA syntatases.

ACSS1 = target: T3, ACSS1 (Homo sapiens, UniProt Q9NUB1); assay: Acyl-CoA synthetases selectivity panel: ACSS1; type: biochemical; conditions: human recombinant protein, substrate acetate, AMP readout by HPLC; read-out: HPLC based activity assays IC50 (UM) ACSS1
T3 construct: purchased Cusabio, China
T3 sequence (Q9NUB1 38-689): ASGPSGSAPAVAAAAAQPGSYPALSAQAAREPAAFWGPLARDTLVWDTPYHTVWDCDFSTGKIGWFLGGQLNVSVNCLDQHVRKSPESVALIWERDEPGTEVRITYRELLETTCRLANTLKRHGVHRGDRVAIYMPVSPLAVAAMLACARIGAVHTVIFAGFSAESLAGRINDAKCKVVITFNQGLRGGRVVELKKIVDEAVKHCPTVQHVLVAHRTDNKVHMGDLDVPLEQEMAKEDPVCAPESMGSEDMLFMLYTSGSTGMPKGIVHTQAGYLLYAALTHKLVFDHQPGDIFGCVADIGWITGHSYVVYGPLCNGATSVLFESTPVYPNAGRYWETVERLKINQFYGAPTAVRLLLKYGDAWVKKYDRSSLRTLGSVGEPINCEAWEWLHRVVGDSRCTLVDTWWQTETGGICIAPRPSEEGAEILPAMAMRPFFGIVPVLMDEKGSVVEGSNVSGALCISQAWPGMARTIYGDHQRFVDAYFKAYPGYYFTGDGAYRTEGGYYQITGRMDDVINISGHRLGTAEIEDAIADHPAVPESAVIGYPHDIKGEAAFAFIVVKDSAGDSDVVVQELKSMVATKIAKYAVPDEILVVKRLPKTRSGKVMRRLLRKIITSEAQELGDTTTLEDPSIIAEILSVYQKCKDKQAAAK
From the text: as §1

ACSS2 [3] = target: T1, ACSS2; assay: biochemical
Method: The assay is based on a coupling reaction with Pyrophosphatase: ACSS2 is converting ATP+CoA+Acetate=>AMP+pyrophosphate+Acetyl-CoA (Ac-CoA). Pyrophosphatase converts pyrophosphate, a product of the ACSS2 reaction, to phosphate which can be detected by measuring the absorbance at 620 nm after incubation with the Biomol green reagent (Enzo life Science, BML-AK111).
At the end of the reaction, Biomol Green was added for 30 minutes at RT and the activity was measured by reading the absorbance at 620 nm.

[4] = system: MDA-MB-468 breast cancer cells xenograft; assay: In-vivo efficacy study in MDA-MB-468 breast cancer cells xenograft; conditions: 100 mg/kg orally once daily; female NMRI nude mice
Method: An in-vivo efficacy study was carried out by Charles-River Laboratories at the Freiburg, Germany site.
Tumor fragments from Breast cancer cell line MDA-MB-468 passaged as subcutaneous xenograft were subcutaneously implanted into female NMRI nude mice (Crl:NMRI-Foxnlnu). The animals were randomized into groups (n=10) when tumors volume reached 50 to 250 mm3. […] Body weights and tumor volume [mm3] by caliper were measured twice weekly.

HCT116 = assay: In-vivo model that does not utilize acetate (HCT116); conditions: daily oral dosing
ACSF2 = target: T4, ACSF2 (Homo sapiens, UniProt Q96CM8); assay: Acyl-CoA synthetases selectivity panel: ACSF2; type: biochemical; conditions: human recombinant protein, substrate octanoate, AMP readout by HPLC; read-out: HPLC based activity assays IC50 (UM) ACSF2
T4 construct: purchased Cusabio, China
T4 sequence (Q96CM8 42-615): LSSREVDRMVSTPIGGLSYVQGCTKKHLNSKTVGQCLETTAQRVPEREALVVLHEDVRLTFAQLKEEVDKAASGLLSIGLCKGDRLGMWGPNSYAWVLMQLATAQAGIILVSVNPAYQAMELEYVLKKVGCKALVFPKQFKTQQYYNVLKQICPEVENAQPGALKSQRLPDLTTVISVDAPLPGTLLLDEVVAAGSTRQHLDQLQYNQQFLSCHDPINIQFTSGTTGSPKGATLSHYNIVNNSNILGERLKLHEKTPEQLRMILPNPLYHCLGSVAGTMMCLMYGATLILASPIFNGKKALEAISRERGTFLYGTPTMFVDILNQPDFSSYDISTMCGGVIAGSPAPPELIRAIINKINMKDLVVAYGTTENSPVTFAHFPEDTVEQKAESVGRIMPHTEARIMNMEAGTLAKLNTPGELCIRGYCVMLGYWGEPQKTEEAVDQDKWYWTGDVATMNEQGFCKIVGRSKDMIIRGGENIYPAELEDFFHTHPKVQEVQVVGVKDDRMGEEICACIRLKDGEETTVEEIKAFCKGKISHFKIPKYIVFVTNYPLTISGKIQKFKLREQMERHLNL
From the text: as §1

ACSS2 [5] = target: T1, ACSS2; assay: Acyl-CoA synthetases selectivity panel: ACSS2; type: biochemical; design: purchased Cusabio, China; conditions: human recombinant protein, substrate acetate, AMP readout by HPLC; read-out: HPLC based activity assays IC50 (UM) ACSS2
From the text: as §1

ACSL5 = target: T5, ACSL5 (Homo sapiens, UniProt Q9ULC5); assay: Acyl-CoA synthetases selectivity panel: ACSL5; type: biochemical; conditions: human recombinant protein, substrate palmitate, AMP readout by HPLC; read-out: HPLC based activity assays IC50 (UM) ACSL5
T5 construct: purchased Cusabio, China
T5 sequence (Q9ULC5 1-683): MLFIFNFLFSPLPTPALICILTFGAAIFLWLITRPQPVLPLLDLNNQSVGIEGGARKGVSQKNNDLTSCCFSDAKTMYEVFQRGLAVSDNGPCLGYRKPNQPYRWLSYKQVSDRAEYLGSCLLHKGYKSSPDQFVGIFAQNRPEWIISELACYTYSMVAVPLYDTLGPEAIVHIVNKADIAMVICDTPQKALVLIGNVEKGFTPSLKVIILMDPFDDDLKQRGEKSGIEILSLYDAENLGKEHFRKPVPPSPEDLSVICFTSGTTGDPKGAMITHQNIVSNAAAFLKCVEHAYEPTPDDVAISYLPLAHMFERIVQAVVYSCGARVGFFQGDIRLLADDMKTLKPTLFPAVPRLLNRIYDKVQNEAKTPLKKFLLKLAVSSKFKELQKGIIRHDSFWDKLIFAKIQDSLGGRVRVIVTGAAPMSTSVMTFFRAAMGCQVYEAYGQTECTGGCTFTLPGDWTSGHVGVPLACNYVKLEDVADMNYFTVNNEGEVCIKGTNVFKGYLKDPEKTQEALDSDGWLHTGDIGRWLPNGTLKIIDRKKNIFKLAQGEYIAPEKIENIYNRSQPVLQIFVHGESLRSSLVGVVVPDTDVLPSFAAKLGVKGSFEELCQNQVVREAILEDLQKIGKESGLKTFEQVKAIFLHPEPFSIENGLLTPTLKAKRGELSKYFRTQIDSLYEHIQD
From the text: as §1

T1 sequence (Q9NR19 whole entry): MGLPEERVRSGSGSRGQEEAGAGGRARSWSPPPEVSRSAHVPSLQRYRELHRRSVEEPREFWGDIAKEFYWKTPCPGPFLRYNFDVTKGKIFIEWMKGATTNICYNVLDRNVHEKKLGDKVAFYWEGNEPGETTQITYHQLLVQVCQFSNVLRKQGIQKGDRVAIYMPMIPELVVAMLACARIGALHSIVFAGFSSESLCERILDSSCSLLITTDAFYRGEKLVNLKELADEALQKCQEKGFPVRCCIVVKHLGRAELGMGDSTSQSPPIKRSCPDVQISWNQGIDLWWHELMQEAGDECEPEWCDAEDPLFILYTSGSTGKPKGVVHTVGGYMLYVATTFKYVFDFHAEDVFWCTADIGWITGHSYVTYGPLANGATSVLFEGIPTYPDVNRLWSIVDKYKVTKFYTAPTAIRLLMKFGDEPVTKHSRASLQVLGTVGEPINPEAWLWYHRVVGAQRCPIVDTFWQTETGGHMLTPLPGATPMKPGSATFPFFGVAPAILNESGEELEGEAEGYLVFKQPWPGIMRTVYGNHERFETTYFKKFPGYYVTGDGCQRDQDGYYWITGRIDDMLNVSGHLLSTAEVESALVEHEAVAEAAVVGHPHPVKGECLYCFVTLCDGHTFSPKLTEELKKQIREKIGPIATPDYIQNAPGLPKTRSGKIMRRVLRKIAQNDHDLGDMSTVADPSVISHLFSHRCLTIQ

IC50 (ACSS2 [1])	bioavailability ([2]; oral 5 mg/kg, iv 1 mg/kg)	clearance ([2]; oral 5 mg/kg, iv 1 mg/kg)	half-life ([2]; po, single 5 mg/kg dose, read-out: t½ (converted))	IC50 (AACS)	IC50 (ACSS1)	IC50 (ACSS2 [3])	IC50 (ACSF2)	IC50 (ACSS2 [5])	IC50 (ACSL5)	Structure (SMILES)	tumor growth in MDA-MB-468 xenograft model [4]	efficacy in a model that does not utilize acetate (HCT116) (HCT116)
0.5 to 50 nM	74%	0.59 mL/min/kg	6.51 h	171000 nM	1000 to 10000 nM	0.01 to 6 nM	152000 nM	< 1 nM	> 100000 nM	COc1ccc(N2N=C(C)C(C(=O)Nc3cccc(C(C)(F)F)c3)C2=O)cc1 (centres unmarked) [compound 265, N-(3-(1,1-difluoroethyl)phenyl)-1-(4-methoxyphenyl)-3-methyl-5-oxo-4,5-dihydro-1H-pyrazole-4-carboxamide]	significant tumor growth delay; also recorded: inhibits tumor growth	no efficacy
> 100 nM						0.01 to 6 nM				CC1=NN(c2ccc(OC(F)F)cc2)C(=O)C1C(=O)N[C@H]1CC[C@@H](O)[C@@H](O)C1 (stereo partly drawn) [compound 307, 1-(4-(difluoromethoxy)phenyl)-N-((1S,3S,4R)-3,4-dihydroxycyclohexyl)-3-methyl-5-oxo-4,5-dihydro-1H-pyrazole-4-carboxamide]		
